Literature values in US12194068B2, “Dietary supplement composition for treating and managing acne” (CODEX LABS CORPORATION, priority 2023, dated 2025).

System: C. acnes
Settings: compared with benzoyl peroxide and erythromycin

Q: For `Oc1ccc(C=Cc2cc(O)cc(O)c2)cc1` [resveratrol], which “inhibition of C. acnes proliferation” value is on record?
A: The value was “on par with benzoyl peroxide and erythromycin”.
